In patent publication US8044213B2, “Thiazolyl-benzimidazoles” (Hoffmann-La Roche Inc., priority 2008, dated 2011):

target: T1, GST-Plk1 (Homo sapiens, UniProt P53350); experiment: Biochemical Characterization Assay A (HTRF, phosphorylation of GST-p53); conditions: full-length GST-Plk1, GST-p53 substrate, HTRF signal
T1 construct: Full-length, active GST-Plk1 was purified from Sf9 insect cells; made in house; host or cells: Sf9 insect cells
Description: Full-length, active GST-Plk1 was purified from Sf9 insect cells, and full-length GST-p53 was purified in E. coli. Anti-phospho p53 antibody was purchased from Cell Signaling Technology. Europium-conjugated anti-rabbit antibody was purchased from PerkinElmer Life and Analytical Sciences. APC-conjugated anti-GST antibody was purchased from Prozyme.
To two microliters of compound (0.6 nM-4 mM) in DMSO or plain DMSO for control wells, 38 microliters of 20 mM HEPES pH 7, 50 mM NaCl, 10 mM MgCl2, 0.5 mM TCEP, 0.1 mM sodium orthovanadate, 0.1 mg/ml BSA, and 0.05% Triton X-100 (Kinase Assay Buffer) were added. Eight microliters of the compound solution were added to a 384-well black microtiter plate, followed by six microliters of GST-p53 (17 ug/ml) and ATP (333 uM) in Kinase Assay Buffer. Six microliters of GST-Plk1 (3 ug/ml) in Kinase Assay Buffer were then added and the solution incubated at 37° C. for 35 minutes. Six microliters of solution containing 43 mM EDTA to stop the reaction and a 1:600 dilution of anti-phospho-p53 antibody in 20 mM HEPES pH 7, 50 mM NaCl, and 0.5 mg/ml BSA (Antibody Binding Buffer) were added and the solution incubated at 37° C. for 30 minutes. Six microliters of solution containing 9 nM europium-conjugated anti-rabbit antibody and 120 nM APC-conjugated anti-GST antibody in Antibody Binding Buffer were then added and the mixture incubated at room temperature for 1.5 hours. The HTRF signal was read on the Envision reader (PerkinElmer Life and Analytical Sciences).
(§1) The IC50 values for each compound were generated using an Excel template. The % conversion readings of Total and Blank were used as 0% and 100% inhibition. The percent inhibition values of reactions in the presence of compounds were calculated, and plotted against compound concentrations. All data were fitted into a Dose Response One Site model (4 parameter logistic model) as the following: (A+4B−A)/(1+((x/C)^13)))), with A and B as the bottom and top of the curve (highest and lowest inhibition), respectively, and C as IC50 and D as Hill Coefficient of the compound.

T1 sequence (P53350 whole entry): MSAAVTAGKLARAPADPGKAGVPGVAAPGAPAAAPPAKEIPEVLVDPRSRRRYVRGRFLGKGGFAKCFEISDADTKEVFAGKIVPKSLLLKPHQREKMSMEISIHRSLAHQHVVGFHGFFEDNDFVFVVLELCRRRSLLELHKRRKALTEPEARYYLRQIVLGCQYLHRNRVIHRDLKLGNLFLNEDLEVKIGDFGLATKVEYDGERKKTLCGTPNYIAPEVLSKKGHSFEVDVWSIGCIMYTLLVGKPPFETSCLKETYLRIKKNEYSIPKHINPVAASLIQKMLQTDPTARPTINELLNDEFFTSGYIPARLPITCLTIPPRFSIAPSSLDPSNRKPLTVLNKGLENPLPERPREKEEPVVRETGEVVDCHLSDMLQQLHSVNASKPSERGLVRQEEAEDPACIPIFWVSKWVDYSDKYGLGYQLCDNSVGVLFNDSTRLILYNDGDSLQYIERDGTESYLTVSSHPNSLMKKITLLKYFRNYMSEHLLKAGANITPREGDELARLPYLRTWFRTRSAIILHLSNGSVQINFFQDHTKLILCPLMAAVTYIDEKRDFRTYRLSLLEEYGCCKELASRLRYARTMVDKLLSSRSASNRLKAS

Row | IC50 [µM] | SMILES
1 | 0.167 | CN1CCN(Cc2ccc3ncn(-c4nc(-c5ccccc5)c(C(N)=O)s4)c3c2)CC1 [Example 1, 2-[6-(4-Methyl-piperazin-1-ylmethyl)-benzoimidazol-1-yl]-4-phenyl-thiazole-5-carboxylic acid amide]
2 | 0.013 | CN1CCN(Cc2ccc3ncn(-c4nc(-c5cccc(Cl)c5)c(C(N)=O)s4)c3c2)CC1 [Example 2, 4-(3-Chloro-phenyl)-2-[6-(4-methyl-piperazin-1-ylmethyl)-benzoimidazol-1-yl]-thiazole-5-carboxylic acid amide]
3 | 1.1 | CN1CCN(Cc2ccc3c(c2)ncn3-c2nc(-c3cccc(Cl)c3)c(C(N)=O)s2)CC1 [Example 3, 4-(3-Chloro-phenyl)-2-[5-(4-methyl-piperazin-1-ylmethyl)-benzoimidazol-1-yl]-thiazole-5-carboxylic acid amide]
4 | 0.306 | NC(=O)c1sc(-n2cnc3ccc(CN4CCOCC4)cc32)nc1-c1cccc(Cl)c1 [Example 4, 4-(3-Chloro-phenyl)-2-(6-morpholin-4-ylmethyl-benzoimidazol-1-yl)-thiazole-5-carboxylic acid amide]
5 | 0.091 | NC(=O)c1sc(-n2cnc3ccc(CN4CCN(CCO)CC4)cc32)nc1-c1cccc(Cl)c1 [Example 5, 4-(3-Chloro-phenyl)-2-{6-[4-(2-hydroxy-ethyl)-piperazin-1-ylmethyl]-benzoimidazol-1-yl}-thiazole-5-carboxylic acid amide]
6 | 0.443 | CN1CCC(NCc2ccc3ncn(-c4nc(-c5cccc(Cl)c5)c(C(N)=O)s4)c3c2)CC1 [Example 7, 4-(3-Chloro-phenyl)-2-{6-[(1-methyl-piperidin-4-ylamino)-methyl]-benzoimidazol-1-yl}-thiazole-5-carboxylic acid amide]
7 | 3.44 | NC(=O)c1sc(-n2cnc3ccc(CN4CCCCC4)cc32)nc1-c1cccc(Cl)c1 [Example 8, 4-(3-Chloro-phenyl)-2-(6-piperidin-1-ylmethyl-benzoimidazol-1-yl)-thiazole-5-carboxylic acid amide]
8 | 0.109 | CN1CCN(CCc2ccc3ncn(-c4nc(-c5cccc(Cl)c5)c(C(N)=O)s4)c3c2)CC1 [Example 9, 4-(3-Chloro-phenyl)-2-{6-[2-(4-methyl-piperazin-1-yl)-ethyl]-benzoimidazol-1-yl}-thiazole-5-carboxylic acid amide]
9 | 2.02 | CN1CCC(NC(=O)c2ccc3ncn(-c4nc(-c5cccc(Cl)c5)c(C(N)=O)s4)c3c2)CC1 [Example 10, 3-[5-Carbamoyl-4-(3-chloro-phenyl)-thiazol-2-yl]-3H-benzoimidazole-5-carboxylic acid (1-methyl-piperidin-4-yl)-amide]
10 | 0.215 | CN1CCN(C(=O)c2ccc3ncn(-c4nc(-c5cccc(Cl)c5)c(C(N)=O)s4)c3c2)CC1 [Example 11, 4-(3-Chloro-phenyl)-2-[6-(4-methyl-piperazine-1-carbonyl)-benzoimidazol-1-yl]-thiazole-5-carboxylic acid amide]
11 | 1.14 | CN1CCN(Cc2ccc3ncn(-c4nc(-c5ccccc5C(F)(F)F)c(C(N)=O)s4)c3c2)CC1 [Example 17, 2-[6-(4-Methyl-piperazin-1-ylmethyl)-benzoimidazol-1-yl]-4-(2-trifluoromethyl-phenyl)-thiazole-5-carboxylic acid amide]
12 | > 80 | CN1CCN(Cc2ccc3c(c2)ncn3-c2nc(-c3ccc(Cl)cc3)c(C(N)=O)s2)CC1 [Example 18, 4-(4-Chloro-phenyl)-2-[5-(4-methyl-piperazin-1-ylmethyl)-benzoimidazol-1-yl]thiazole-5-carboxylic acid amide]
13 | 0.499 | CN1CCN(Cc2ccc3ncn(-c4nc(-c5ccc(Cl)cc5)c(C(N)=O)s4)c3c2)CC1 [Example 19, 4-(4-Chloro-phenyl)-2-[6-(4-methyl-piperazin-1-ylmethyl)-benzoimidazol-1-yl]-thiazole-5-carboxylic acid amide]
14 | 0.346 | CN1CCN(Cc2ccc3ncn(-c4nc(-c5ccccc5Cl)c(C(N)=O)s4)c3c2)CC1 [Example 20, 4-(2-Chloro-phenyl)-2-[6-(4-methyl-piperazin-1-ylmethyl)-benzoimidazol-1-yl]-thiazole-5-carboxylic acid amide]
15 | 0.08 | NC(=O)c1sc(-n2cnc3ccc(OC4CCNCC4)cc32)nc1-c1cccc(Cl)c1 [Example 21, 4-(3-Chloro-phenyl)-2-[6-(piperidin-4-yloxy)-benzoimidazol-1-yl]-thiazole-5-carboxylic acid amide]
16 | 0.66 | NC(=O)c1sc(-n2cnc3ccc(OC4CCCCC4)cc32)nc1-c1cccc(Cl)c1 [Example 25, 4-(3-Chloro-phenyl)-2-(6-cyclohexyloxy-benzoimidazol-1-yl)-thiazole-5-carboxylic acid amide]
17 | 0.166 | NC(=O)c1sc(-n2cnc3ccc(OCCN4CCOCC4)cc32)nc1-c1cccc(Cl)c1 [Example 26, 4-(3-Chloro-phenyl)-2-[6-(2-morpholin-4-yl-ethoxy)-benzoimidazol-1-yl]-thiazole-5-carboxylic acid amide]
18 | 0.021 | NC(=O)c1sc(-n2cnc3ccc(OCCCN4CCOCC4)cc32)nc1-c1cccc(Cl)c1 [Example 30, 4-(3-Chloro-phenyl)-2-[6-(3-morpholin-4-yl-propoxy)-benzoimidazol-1-yl]-thiazole-5-carboxylic acid amide]
19 | 0.161 | CN(C)CCCOc1ccc2ncn(-c3nc(-c4cccc(Cl)c4)c(C(N)=O)s3)c2c1 [Example 31, 4-(3-Chloro-phenyl)-2-[6-(3-dimethylamino-propoxy)-benzoimidazol-1-yl]-thiazole-5-carboxylic acid amide]
20 | 0.032 | CN1CCN(CCCOc2ccc3ncn(-c4nc(-c5cccc(Cl)c5)c(C(N)=O)s4)c3c2)CC1 [Example 33, 4-(3-Chloro-phenyl)-2-{6-[3-(4-methyl-piperazin-1-yl)-propoxy]-benzoimidazol-1-yl}-thiazole-5-carboxylic acid amide]
21 | 0.661 | CN1CCN(Cc2ccc3ncn(-c4nc(-c5ccc(C(F)(F)F)cc5)c(C(N)=O)s4)c3c2)CC1 [Example 47, 2-[6-(4-Methyl-piperazin-1-ylmethyl)-benzoimidazol-1-yl]-4-(4-trifluoromethyl-phenyl)-thiazole-5-carboxylic acid amide]
22 | 0.059 | CN1CCN(Cc2ccc3ncn(-c4nc(-c5cccc(C(F)(F)F)c5)c(C(N)=O)s4)c3c2)CC1 [Example 48, 2-[6-(4-Methyl-piperazin-1-ylmethyl)-benzoimidazol-1-yl]-4-(3-trifluoromethyl-phenyl)-thiazole-5-carboxylic acid amide]

target: T2, PLK1 (Homo sapiens, UniProt P53350); experiment: Biochemical Characterization Assay B (peptide substrate, LABCHIP EZ Reader II); conditions: PLK1, peptide RRRAGALMDASFEEQ-CONH2, % conversion on LABCHIP EZ Reader II
T2 construct: Full-length, active GST-Plk1 was purified from Sf9 insect cells; GST (N); made in house; host or cells: Sf9 insect cells
T2 sequence (P53350 whole entry): as above
Description: Compounds were serially diluted to 6400, 2133, 711, 237, 79, 26, 8.78, 2.93, 0.98 and 0.33 μM in 100% DMSO. Diluted compound was further diluted 20 fold with Kinase Assay Buffer (KAB). Peptide RRRAGALMDASFEEQ-CONH2 (MW 2090) was diluted to 1.2 μM with KAB and ATP was added to 400 μM. PLK1 stock, prepared as described above, was diluted to 3 μg protein/mL with KAB right before it was added to MATRIX 384-Well Polypropylene Black Plates to start the reaction. 20 μL of KAB diluted compounds (or 5% DMSO in KAB for Total and Blank), 20 μL of KAB diluted peptide with ATP and 40 μL of KAB diluted PLK1 solution (KAB without PLK 1 for Blanks) were transferred to each well of the polypropylene plates. The reaction mixtures were incubated at room temperature for 40 minutes. Reactions were stopped by addition of 10 uL Reaction Stopping Buffer (RSB) to each well. Plates were then read on LABCHIP EZ Reader II from Caliper Life Science.
as §1

Row | IC50 [µM] | SMILES
23 | 0.013 | COc1cc2ncn(-c3nc(-c4cccc(Cl)c4)c(C(N)=O)s3)c2cc1CN1CCN(C)CC1 [Example 46, 4-(3-Chloro-phenyl)-2-[5-methoxy-6-(4-methyl-piperazin-1-ylmethyl)-benzoimidazol-1-yl]-thiazole-5-carboxylic acid amide]
24 | 0.566 | NC(=O)c1sc(-n2cnc3ccc(CN(CCCN4CCOCC4)CCCN4CCOCC4)cc32)nc1-c1cccc(Cl)c1 [Example 49, 2-(6-{[Bis-(3-morpholin-4-yl-propyl)-amino]-methyl}-benzoimidazol-1-yl)-4-(3-chloro-phenyl)-thiazole-5-carboxylic acid amide]
25 | 0.085 | CN(CCCN1CCOCC1)Cc1ccc2ncn(-c3nc(-c4cccc(Cl)c4)c(C(N)=O)s3)c2c1 [Example 50, 4-(3-Chloro-phenyl)-2-(6-{[methyl-(3-morpholin-4-yl-propyl)-amino]-methyl}-benzoimidazol-1-yl)-thiazole-5-carboxylic acid amide]
